Experimental data: ChEMBL document CHEMBL1201862, “PubChem BioAssay data set” (2004)
Activity calls are given as the source filed them.

Tests used:
[1] = target: ATP-dependent molecular chaperone HSP82 (Candida albicans (strain WO-1) (Yeast), UniProt C4YTQ8); assay: loss of DOC-induced GRE-beta-galactosidase reporter signal, dose response, Hsp90 inhibitor project, S. cerevisiae, luminescence (AID 2400); type: functional, cell-based;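 also: beta-galactosidase luminescence from glucocorticoid response element reporter as proxy for Hsp90 function; inhibitor potency where signal loss means Hsp90 inhibition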
Sequence of ATP-dependent molecular chaperone HSP82 (C4YTQ8 whole entry): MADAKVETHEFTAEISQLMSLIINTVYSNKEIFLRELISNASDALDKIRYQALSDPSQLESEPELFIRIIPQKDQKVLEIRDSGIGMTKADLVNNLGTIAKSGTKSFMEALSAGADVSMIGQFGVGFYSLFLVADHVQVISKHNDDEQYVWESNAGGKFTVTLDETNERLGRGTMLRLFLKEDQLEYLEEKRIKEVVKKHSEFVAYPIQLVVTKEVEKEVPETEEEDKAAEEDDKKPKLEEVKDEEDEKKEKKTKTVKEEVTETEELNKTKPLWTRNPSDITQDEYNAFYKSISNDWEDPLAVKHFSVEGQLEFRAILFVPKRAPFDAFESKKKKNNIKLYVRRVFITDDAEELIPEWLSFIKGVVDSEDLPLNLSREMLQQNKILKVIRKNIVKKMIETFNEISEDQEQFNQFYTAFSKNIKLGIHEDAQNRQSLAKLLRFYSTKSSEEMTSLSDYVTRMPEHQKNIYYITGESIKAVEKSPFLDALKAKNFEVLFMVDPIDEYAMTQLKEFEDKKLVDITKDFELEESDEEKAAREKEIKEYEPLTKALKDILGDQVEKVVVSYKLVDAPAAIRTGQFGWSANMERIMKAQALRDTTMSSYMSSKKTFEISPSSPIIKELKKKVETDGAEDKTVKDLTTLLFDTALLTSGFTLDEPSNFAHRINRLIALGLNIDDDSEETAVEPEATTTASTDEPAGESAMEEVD

[2] = C. albicans growth with fluconazole, confirmation, fluorescence, retest (AID 2467); type: functional, cell-based
[3] = target: T1, Serine/threonine-protein phosphatase (Candida dubliniensis (strain CD36 / CBS 7987 / NCPF 3949 / NRRLY-17841) (Yeast), UniProt B9W6M3); assay: calcineurin pathway inhibitors in yeast reporter, dose response, S. cerevisiae, CDRE-lacZ, luminescence, secondary (AID 2388); type: functional, cell-based;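 also: yeast reporter cells carrying a calcineurin-responsive lacZ construct stimulated with calcium chloride; luminescent beta-galactosidase reporter signal in whole cells rather than isolated phosphatase activity; potency for inhibition where a drop in reporter signal means calcineurin blockade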
T1 sequence (B9W6M3 whole entry): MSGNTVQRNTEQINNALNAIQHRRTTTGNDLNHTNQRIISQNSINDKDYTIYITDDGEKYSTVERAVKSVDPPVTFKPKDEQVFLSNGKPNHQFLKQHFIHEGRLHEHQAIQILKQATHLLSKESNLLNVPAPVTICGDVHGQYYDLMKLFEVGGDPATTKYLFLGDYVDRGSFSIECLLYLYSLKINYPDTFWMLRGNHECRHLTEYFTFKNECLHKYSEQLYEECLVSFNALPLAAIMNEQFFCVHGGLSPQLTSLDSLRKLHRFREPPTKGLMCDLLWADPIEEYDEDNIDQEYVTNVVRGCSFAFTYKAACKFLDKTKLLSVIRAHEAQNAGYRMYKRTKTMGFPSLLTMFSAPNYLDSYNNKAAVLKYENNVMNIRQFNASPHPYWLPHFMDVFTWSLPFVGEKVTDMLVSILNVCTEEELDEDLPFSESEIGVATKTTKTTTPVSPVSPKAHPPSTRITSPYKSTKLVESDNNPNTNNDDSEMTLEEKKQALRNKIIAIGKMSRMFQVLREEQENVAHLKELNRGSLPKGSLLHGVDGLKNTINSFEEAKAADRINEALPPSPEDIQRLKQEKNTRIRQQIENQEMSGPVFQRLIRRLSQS

[4] = NIH-3T3 fibroblast cytotoxicity, dose response, cytotoxicity control, cell-based, fluorescence, Alamar Blue, secondary assay (AID 2327); type: functional;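 also: NIH-3T3 mouse fibroblasts cultured with fluconazole at 8 µg/mL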
[5] = target: T1, Serine/threonine-protein phosphatase; assay: Fluorescence Cell-Based Secondary Assay to Identify Inhibitors of Calcineurin. [Related pubchem assays (depositor defined):AID1979, AID2007]; type: functional
Vero [6] = assay: cells; type: functional; conditions: Chlorocebus sabaeus
Vero [7] = assay: cells; type: functional, cell-based; conditions: Chlorocebus sabaeus
[8] = insulin promoter down-regulators in MIN6 cells, imaging, high-content screening, mouse beta cells (AID 1628); type: functional
[9] = cytotoxicity in MIN6 insulinoma cells, dose response, cytotoxicity control, cell-based, mouse insulinoma (AID 2122); type: functional;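 also: confirmatory high-throughput counterscreen run to flag cytotoxic compounds; mouse MIN-6 beta cells carrying an insulin promoter eGFP reporter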
BJ [10] = assay: cells; type: functional, cell-based; conditions: Homo sapiens
BJ [11] = assay: cytotoxicity toward BJ-TERT-LT-ST fibroblasts, dose response, cell-based, RAS-independent, luminescence (AID 1935); type: functional; conditions: Homo sapiens;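 also: BJ fibroblasts immortalized with TERT plus LT and ST oncogenes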
[12] = cytotoxicity in HEK-293T cells, dose response, cytotoxicity control for TCR NF-kB inhibitor project, luminescence, T-cell screen hits (AID 489026); type: functional, cell-based;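 also: cells exposed to compound about 14 hours before the viability readout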
[13] = target: Luciferin 4-monooxygenase (Photinus pyralis, UniProt P08659); assay: firefly luciferase enzyme inhibitors, dose response, biochemical, luminescence (AID 1891)
Sequence of Luciferin 4-monooxygenase (P08659 whole entry): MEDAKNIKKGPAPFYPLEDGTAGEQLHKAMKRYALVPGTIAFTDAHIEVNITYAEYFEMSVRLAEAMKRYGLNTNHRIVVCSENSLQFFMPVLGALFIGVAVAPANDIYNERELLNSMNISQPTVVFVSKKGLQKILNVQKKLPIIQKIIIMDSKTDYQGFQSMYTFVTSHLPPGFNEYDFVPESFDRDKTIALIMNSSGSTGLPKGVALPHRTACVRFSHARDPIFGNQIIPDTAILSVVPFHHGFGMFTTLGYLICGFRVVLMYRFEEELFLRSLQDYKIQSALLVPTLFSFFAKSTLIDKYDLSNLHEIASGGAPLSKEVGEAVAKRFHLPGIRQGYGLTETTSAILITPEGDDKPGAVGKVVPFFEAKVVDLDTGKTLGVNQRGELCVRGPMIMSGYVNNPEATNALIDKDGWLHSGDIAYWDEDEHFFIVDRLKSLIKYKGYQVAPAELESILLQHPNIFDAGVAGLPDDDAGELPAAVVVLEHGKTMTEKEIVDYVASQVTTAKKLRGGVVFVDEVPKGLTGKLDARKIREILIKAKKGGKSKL

[14] = Luminescence Cell-Based Dose Confirmation HTS to Identify Inhibitors of Platelet Dense Granule Release. [Related pubchem assays: 1663 (Primary HTS), 1678 (Summary of Project)]; type: functional
[15] = cytotoxicity toward DRD oncogenic fibroblasts, dose response, cell-based, non-viral oncogenic, luminescence (AID 1934); type: functional; conditions: Homo sapiens
BJ [16] = assay: cytotoxicity toward BJ-TERT fibroblasts, dose response, cell-based, RAS-independent, luminescence (AID 1933); type: functional; conditions: Homo sapiens
[17] = target: T2, COUP transcription factor 2 (Homo sapiens, UniProt P24468); assay: Luminescence-based cell-based high throughput dose response assay to identify inhibitors of COUP-TFII (NR2F2).; type: functional;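 also: HEK293 cells transiently cotransfected with COUP-TFII expression vector and reporter; luciferase reporter luminescence driven by COUP-TFII from the pX2-168 reporter plasmid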
T2 sequence (P24468 whole entry): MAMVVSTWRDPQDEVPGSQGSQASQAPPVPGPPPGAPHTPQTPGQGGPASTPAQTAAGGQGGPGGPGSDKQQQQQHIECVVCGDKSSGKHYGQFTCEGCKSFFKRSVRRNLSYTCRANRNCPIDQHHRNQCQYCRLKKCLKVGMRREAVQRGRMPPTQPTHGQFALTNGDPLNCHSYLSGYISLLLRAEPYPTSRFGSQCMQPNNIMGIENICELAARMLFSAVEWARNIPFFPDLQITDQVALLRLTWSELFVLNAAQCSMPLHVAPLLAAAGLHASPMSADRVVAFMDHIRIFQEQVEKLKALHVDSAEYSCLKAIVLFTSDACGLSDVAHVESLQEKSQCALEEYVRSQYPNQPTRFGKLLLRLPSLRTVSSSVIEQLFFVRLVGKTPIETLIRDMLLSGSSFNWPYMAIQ

[18] = Shn3 3'UTR reporter inhibitors, dose response, cell-based, Clone20 osteoblasts, firefly luciferase, cherry-picked (AID 624132); type: functional;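 also: firefly luciferase luminescence from reporter carrying the Shn3 3'UTR in osteoblasts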
[19] = HepG2 cell cytotoxicity, dose response, cytotoxicity control for Shn3 inhibitor project, CellTiter-Glo, cherry-picked (AID 624134); type: functional, cell-based
INS1 = assay: beta cell apoptosis inhibitors, cytokine rescue, dose response, luminescence, retest (AID 449756); type: functional, cell-based; conditions: Rattus norvegicus;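 also: cell death triggered by IL-1 beta plus TNF-alpha plus IFN-gamma mixture; protective hits raise ATP signal compared with cytokine alone wells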
HEK293 [20] = assay: cells; type: functional, cell-based; conditions: Homo sapiens
HEK293 [21] = assay: cells; type: functional, cell-based; conditions: Homo sapiens; remark: listed apart in the source
HEK293 [22] = assay: NOD1 signaling inhibitors, primary screen, cell-based, luminescence, uHTS (AID 1578); type: functional; conditions: Homo sapiens
HEK293 [23] = assay: NOD2 signaling inhibitors in MDP-stimulated cells, cell-based, uHTS, luminescence (AID 2001); type: functional; conditions: Homo sapiens
HEK293 [24] = assay: cells; type: functional, cell-based; conditions: Homo sapiens; remark: listed apart in the source
[25] = reduction of Shn3 3'UTR firefly luciferase signal, dose response, Schnurri-3 inhibitor project, cell-based, Clone20 osteoblasts, cherry-pick, set 2 (AID 720490); type: functional;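 also: actives lower the luminescence signal as inhibitors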
[26] = target: Nucleotide-binding oligomerization domain-containing protein 2 (Homo sapiens, UniProt Q9HC29); assay: NOD2 signaling inhibitors, cell-based, luminescence, uHTS, HEK293 (AID 1566); type: functional
Sequence of Nucleotide-binding oligomerization domain-containing protein 2 (Q9HC29 whole entry, the tested form may be a part): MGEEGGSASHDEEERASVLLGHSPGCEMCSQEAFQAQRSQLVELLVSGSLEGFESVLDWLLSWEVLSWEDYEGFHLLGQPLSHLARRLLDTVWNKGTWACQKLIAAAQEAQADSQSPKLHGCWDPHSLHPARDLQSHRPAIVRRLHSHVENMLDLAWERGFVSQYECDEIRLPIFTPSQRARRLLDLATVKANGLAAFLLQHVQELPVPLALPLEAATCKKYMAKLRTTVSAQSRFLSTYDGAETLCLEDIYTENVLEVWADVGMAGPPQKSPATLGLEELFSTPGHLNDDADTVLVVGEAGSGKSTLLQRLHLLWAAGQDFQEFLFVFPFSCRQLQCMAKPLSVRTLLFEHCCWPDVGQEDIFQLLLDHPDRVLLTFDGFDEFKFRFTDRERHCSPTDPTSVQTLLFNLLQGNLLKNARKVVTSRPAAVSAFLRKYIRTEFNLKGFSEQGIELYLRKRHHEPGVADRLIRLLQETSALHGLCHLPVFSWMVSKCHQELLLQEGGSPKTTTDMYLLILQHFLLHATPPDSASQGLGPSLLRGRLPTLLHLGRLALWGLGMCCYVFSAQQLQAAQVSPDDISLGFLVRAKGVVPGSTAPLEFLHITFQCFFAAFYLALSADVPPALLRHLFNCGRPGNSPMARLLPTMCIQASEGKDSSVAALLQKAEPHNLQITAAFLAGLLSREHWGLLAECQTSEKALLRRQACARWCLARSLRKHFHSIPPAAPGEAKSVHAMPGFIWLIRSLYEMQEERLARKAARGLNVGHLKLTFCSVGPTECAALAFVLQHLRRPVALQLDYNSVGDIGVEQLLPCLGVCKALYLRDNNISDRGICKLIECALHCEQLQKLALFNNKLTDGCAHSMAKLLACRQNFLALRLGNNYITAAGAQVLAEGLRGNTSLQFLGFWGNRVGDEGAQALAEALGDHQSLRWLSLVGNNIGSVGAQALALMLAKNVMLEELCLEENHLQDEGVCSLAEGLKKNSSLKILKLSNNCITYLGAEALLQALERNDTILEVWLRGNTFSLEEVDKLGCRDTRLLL

With `Cc1ccc(Nc2nc(N)c([N+](=O)[O-])c(N3CCC(C)CC3)n2)cc1C` the EC50 [1] was 4.42 µM (active), the EC50 [2] was 0.207 µM (active) and the EC50 [3] was > 180 µM (inactive). For the same compound, the EC50 [4] was > 150 µM (inactive) and the EC50 [5] was 9.17 µM (active).

In the case of `Cc1ccc(-n2ncc3c(SCc4cccnc4)ncnc32)c(C)c1`, the CC50 (Vero [6]) is reported as 20.9 µM (active), the IC50 (Vero [7]) is reported as 21.8 µM (active) and the IC50 [8] is reported as 1.77 µM (active). The IC50 [9] was 1.09 µM (active).

For `Cc1ccc(S(=O)(=O)Cc2ccc(C(=O)N3CCN(c4cccc(C)c4C)CC3)o2)cc1`, the EC50 (BJ [10]) was 18 µM (active), the EC50 (BJ [11]) was 4.2 µM (active) and the IC50 [12] was > 80 µM (inactive). The EC50 [13] was 57.2 µM (active), the EC50 [14] was > 112 µM (not active) and the EC50 [15] was 13.3 µM (inconclusive). The EC50 (BJ [16]) was 8.13 µM (inconclusive).

With `Cc1cc(S(=O)(=O)NCc2ccncc2)c(C)cc1Br` the IC50 [17] was 6.41 µM (active), the AC50 [18] was 1.23 µM (active) and the AC50 [19] was 41.1 µM (active). The AC50 (INS1) was 4.42 µM (active), the IC50 (HEK293 [20]) was > 20 µM (inactive) and the IC50 (HEK293 [21]) was 9.24 µM (active). For the same compound, the EC50 (HEK293 [22]) was 4.2 µM (active), the IC50 (HEK293 [23]) was 17.9 µM (inactive) and the IC50 (HEK293 [24]) was > 20 µM (inactive). The AC50 [25] was 1.02 µM (active) and the EC50 [26] was 5.82 µM (active).
